Data published in patent US20120040946A1 (APEX LABORATORIES PRIVATE LIMITED, priority 2009, published 2012).
Counter-ions that a name gives are not always drawn.

Legend:
Staphylococcus aureus = experiment: In vitro antimicrobial zone of inhibition study; format: cell-based
Description: The antimicrobial/antibacterial activity of the product is confirmed by the in vitro Antimicrobial Zone of Inhibition studies for the product against Staphylococcusaureus. The details of the studies are detailed below in Table 16.

[1] = Stability analysis of raw API (3 months, open & closed Petri dish) by stability indicating HPLC method and titration method; format: physicochemical; settings: for Fusidic Acid Assay (%) HPLC / Fusidic Acid Assay (%) Titration / Percentage Drop (%) HPLC / Percentage Drop (%) Titration / Sodium Fusidate Assay(%) HPLC / Sodium Fusidate Assay(%) Titration / Percentage (%) HPLC / Percentage (%) Titration: after 3 months; for Percentage Drop (%) HPLC / Percentage Drop (%) Titration: Fusidic acid API; for Percentage (%) HPLC / Percentage (%) Titration: Sodium Fusidate API
gram-negative bacteria = settings: cited from earlier work
bacterial cells = settings: in vitro; cited from earlier work
[2] = 20° C.; cited from earlier work
[3] = at the time of receipt of the API from the supplier

CC(=O)O[C@H]1C[C@@]2(C)[C@@H](C[C@@H](O)[C@H]3[C@@]4(C)CC[C@@H](O)[C@@H](C)[C@@H]4CC[C@@]32C)/C1=C(\CCC=C(C)C)C(=O)O [Fusidic Acid, Fusidic acid]
Inference (Staphylococcus aureus; Dose 10 mcg): Sensitive | Zone Diameter Range (mm) (Staphylococcus aureus; Dose 10 mcg): 21-33 mm | Inference (Staphylococcus aureus; Dose 20 mcg): Sensitive | Zone Diameter Range (mm) (Staphylococcus aureus; Dose 20 mcg): 20-30 mm | Inference (Staphylococcus aureus; Dose 50 mcg): Sensitive | Zone Diameter Range (mm) (Staphylococcus aureus; Dose 50 mcg): 25-32 mm | Fusidic Acid Assay (%) HPLC ([1]; 45° C. (Closed)): 92.12% | Fusidic Acid Assay (%) Titration ([1]; 45° C. (Closed)): 99.10% | Fusidic Acid Assay (%) HPLC ([1]; 45° C. (Open)): 89.52% | Fusidic Acid Assay (%) Titration ([1]; 45° C. (Open)): 98.52% | loss in 3 Months ([1]; 45° C. (open condition)): about 11% | Percentage Drop (%) HPLC ([1]; 45° C. (Closed)): 8.48% | Percentage Drop (%) Titration ([1]; 45° C. (Closed)): 1.50% | Percentage Drop (%) HPLC ([1]; 45° C. (Open)): 11.08% | Percentage Drop (%) Titration ([1]; 45° C. (Open)): 2.08% | Percentage Drop (%) HPLC ([1]; RT (Closed)): 6.23% | Percentage Drop (%) Titration ([1]; RT (Closed)): 1.58% | Percentage Drop (%) HPLC ([1]; RT (Open)): 7.67% | Percentage Drop (%) Titration ([1]; RT (Open)): 1.39% | Fusidic Acid Assay (%) HPLC ([1]; RT (Closed)): 94.37% | Fusidic Acid Assay (%) Titration ([1]; RT (Closed)): 99.02% | Fusidic Acid Assay (%) HPLC ([1]; RT (Open)): 92.93% | Fusidic Acid Assay (%) Titration ([1]; RT (Open)): 99.21% | Fusidic Acid Initial (%) [1, 3]: 100.6% | loss in 3 Months ([1]; room temperature (open condition)): about 7.7%

CC(=O)O[C@H]1C[C@@]2(C)[C@@H](C[C@@H](O)[C@H]3[C@@]4(C)CC[C@@H](O)[C@@H](C)[C@@H]4CC[C@@]32C)/C1=C(\CCC=C(C)C)C(=O)O [Sodium Fusidate, 3μ,11μ,16β-Trihydroxy 29-nor-8μ, 9β, 13μ, 14β-dammara-17(20) [10,21-cis], 24-dien-21-oic acid 16-acetate, sodium salt]
activity against gram-negative bacteria (gram-negative bacteria): virtually inactive | time DNA synthesis continues after contact (bacterial cells): 45 min | time until bacterial cells stop dividing after contact with the antibiotic (bacterial cells): ≤ 2 min | solubility in water [2]: soluble in one part of water | Sodium Fusidate Assay(%) HPLC ([1]; 45° C. (Closed)): 92.96% | Sodium Fusidate Assay(%) Titration ([1]; 45° C. (Closed)): 97.16% | Sodium Fusidate Assay(%) HPLC ([1]; 45° C. (Open)): 92.65% | Sodium Fusidate Assay(%) Titration ([1]; 45° C. (Open)): 97.07% | loss in 3 Months ([1]; 45° C. (open condition), sodium salt): about 6% | Sodium Fusidate Assay(%) HPLC ([1]; RT (Closed)): 97.67% | Sodium Fusidate Assay(%) Titration ([1]; RT (Closed)): 98.85% | Sodium Fusidate Assay(%) HPLC ([1]; RT (Open)): 96.25% | Sodium Fusidate Assay(%) Titration ([1]; RT (Open)): 97.71% | Percentage (%) HPLC ([1]; 45° C. (Closed)): 5.74% | Percentage (%) Titration ([1]; 45° C. (Closed)): 1.54% | Percentage (%) HPLC ([1]; 45° C. (Open)): 6.05% | Percentage (%) Titration ([1]; 45° C. (Open)): 1.63% | Percentage (%) HPLC ([1]; RT (Closed)): 1.03% | Percentage (%) Titration ([1]; RT (Closed)): −0.15% | Percentage (%) HPLC ([1]; RT (Open)): 2.45% | Percentage (%) Titration ([1]; RT (Open)): 0.99% | stability as an API compared with Fusidic acid ([1]; Tables 1 and 2): more stable than Fusidic acid | Sodium Fusidate Initial (%) [1, 3]: 98.7% | loss in 3 Months ([1]; room temperature (open condition), sodium salt): about 2.5%

CC1(C)S[C@@H]2[C@H](NC(=O)Cc3ccccc3)C(=O)N2[C@H]1C(=O)O [Penicillin G]
Inference (Staphylococcus aureus; Dose 10 Units): Resistant | Zone Diameter Range (mm) (Staphylococcus aureus; Dose 10 Units): 21-27 mm
